Measurements from article PMC5218480 (PLoS ONE, 2017).

Test system: MV-4-11 cells
Assay: Gene expression microarray analysis (Affymetrix PrimeView) and GSEA
Format: cell-based, human
Parameters: RFU PODN (11730768_x_at) / Fold change /veh PODN (11730768_x_at) / RFU LINC00158 (11744669_a_at) / Fold change /veh LINC00158 (11744669_a_at) / RFU DUSP10 (11751237_a_at) / Fold change /veh DUSP10 (11751237_a_at) / RFU ID3 (11757404_x_at) / Fold change /veh ID3 (11757404_x_at) / RFU PLEKHG5 (11737974_s_at) / Fold change /veh PLEKHG5 (11737974_s_at) / RFU LRRC4B (11730491_at) / Fold change /veh LRRC4B (11730491_at) / RFU GIMAP4 (11747438_a_at) / Fold change /veh GIMAP4 (11747438_a_at) / RFU KRT8 (11758183_x_at) / Fold change /veh KRT8 (11758183_x_at) / RFU CNN1 (11734310_a_at) / Fold change /veh CNN1 (11734310_a_at) / RFU VPS37D (11726825_at) / Fold change /veh VPS37D (11726825_at) / RFU C10orf10 (11716522_x_at) / Fold change /veh C10orf10 (11716522_x_at) / RFU KIR2DL2 /// KIR2DL4 /// KIR2DL5A /// KIR2DL5B /// KIR2DS1 /// KIR2DS2 /// KIR2DS3 /// KIR2DS4 /// KIR3DL3 /// KIR3DL3 /// KIR3DS1 (11738374_at) / Fold change /veh KIR2DL2 /// KIR2DL4 /// KIR2DL5A /// KIR2DL5B /// KIR2DS1 /// KIR2DS2 /// KIR2DS3 /// KIR2DS4 /// KIR3DL3 /// KIR3DL3 /// KIR3DS1 (11738374_at) / RFU C1QL1 (11718748_at) / Fold change /veh C1QL1 (11718748_at) / RFU TMPRSS4 (11747572_a_at) / Fold change /veh TMPRSS4 (11747572_a_at) / RFU HAMP (11756126_x_at) / Fold change /veh HAMP (11756126_x_at) / RFU RNFT2 (11725882_a_at) / Fold change /veh RNFT2 (11725882_a_at) / RFU NR4A2 (11747474_a_at) / Fold change /veh NR4A2 (11747474_a_at) / RFU ABCC12 (11746883_a_at) / Fold change /veh ABCC12 (11746883_a_at) / RFU TMEM136 (11760407_x_at) / Fold change /veh TMEM136 (11760407_x_at) / RFU CLDN22 /// WWC2 (11732394_at) / Fold change /veh CLDN22 /// WWC2 (11732394_at) / RFU HLA-DPB1 (11760878_x_at) / Fold change /veh HLA-DPB1 (11760878_x_at) / RFU SPINT1 (11716480_a_at) / Fold change /veh SPINT1 (11716480_a_at) / RFU GAP43 (11754022_s_at) / Fold change /veh GAP43 (11754022_s_at) / RFU A4GNT (11735810_at) / Fold change /veh A4GNT (11735810_at) / RFU PRB3 (11715151_x_at) / Fold change /veh PRB3 (11715151_x_at) / RFU TUBB4B (11761932_at) / Fold change /veh TUBB4B (11761932_at) / RFU CAPN14 (11732068_a_at) / Fold change /veh CAPN14 (11732068_a_at) / RFU TMCC2 (11721928_a_at) / Fold change /veh TMCC2 (11721928_a_at) / RFU IRGQ (11745062_a_at) / Fold change /veh IRGQ (11745062_a_at) / RFU FAM174B (11720279_a_at) / Fold change /veh FAM174B (11720279_a_at) / RFU TMPRSS4 (11748680_a_at) / Fold change /veh TMPRSS4 (11748680_a_at) / RFU FAM212B (11763350_a_at) / Fold change /veh FAM212B (11763350_a_at) / RFU PLEKHG5 (11743358_a_at) / Fold change /veh PLEKHG5 (11743358_a_at) / RFU ZSCAN30 (11745921_a_at) / Fold change /veh ZSCAN30 (11745921_a_at) / RFU CMKLR1 (11741424_a_at) / Fold change /veh CMKLR1 (11741424_a_at) / RFU LOC101060620 /// MAPK8IP1 (11723275_at) / Fold change /veh LOC101060620 /// MAPK8IP1 (11723275_at) / RFU SPTSSB (11747773_x_at) / Fold change /veh SPTSSB (11747773_x_at) / RFU PRSS12 (11739890_at) / Fold change /veh PRSS12 (11739890_at) / RFU BIN1 (11741810_x_at) / Fold change /veh BIN1 (11741810_x_at) / RFU WNT11 (11732464_a_at) / Fold change /veh WNT11 (11732464_a_at) / RFU C10orf10 (11716521_a_at) / Fold change /veh C10orf10 (11716521_a_at) / RFU C5orf56 (11738089_at) / Fold change /veh C5orf56 (11738089_at) / RFU CYB561 (11721691_x_at) / Fold change /veh CYB561 (11721691_x_at) / RFU ANKRD19P (11752326_a_at) / Fold change /veh ANKRD19P (11752326_a_at) / RFU OR2T12 /// OR2T33 /// OR2T8 (11738714_s_at) / Fold change /veh OR2T12 /// OR2T33 /// OR2T8 (11738714_s_at) / RFU VCAN (11748164_a_at) / Fold change /veh VCAN (11748164_a_at) / RFU JSRP1 (11732532_at) / Fold change /veh JSRP1 (11732532_at) / RFU KRTAP10-11 (11738290_x_at) / Fold change /veh KRTAP10-11 (11738290_x_at) / RFU MYO3A (11730013_a_at) / Fold change /veh MYO3A (11730013_a_at) / RFU EBF3 (11725865_a_at) / Fold change /veh EBF3 (11725865_a_at) / RFU CAMK2N1 (11719241_x_at) / Fold change /veh CAMK2N1 (11719241_x_at) / RFU C5orf56 (11738088_a_at) / Fold change /veh C5orf56 (11738088_a_at) / RFU OLFML3 (11715873_a_at) / Fold change /veh OLFML3 (11715873_a_at) / RFU LOC100653217 /// NTM (11731650_a_at) / Fold change /veh LOC100653217 /// NTM (11731650_a_at) / RFU MAPK11 (11762145_a_at) / Fold change /veh MAPK11 (11762145_a_at) / RFU FIZ1 (11724087_x_at) / Fold change /veh FIZ1 (11724087_x_at) / RFU OASL (11726364_x_at) / Fold change /veh OASL (11726364_x_at) / RFU SOX15 (11748057_x_at) / Fold change /veh SOX15 (11748057_x_at) / RFU CD79A (11719716_a_at) / Fold change /veh CD79A (11719716_a_at) / RFU HIST1H1D (11736915_at) / Fold change /veh HIST1H1D (11736915_at) / RFU CASKIN2 (11723855_a_at) / Fold change /veh CASKIN2 (11723855_a_at) / RFU LOC730098 (11760151_x_at) / Fold change /veh LOC730098 (11760151_x_at) / RFU OR4N2 (11742367_at) / Fold change /veh OR4N2 (11742367_at) / RFU PRRT2 (11749266_a_at) / Fold change /veh PRRT2 (11749266_a_at) / RFU SNX32 (11753110_a_at) / Fold change /veh SNX32 (11753110_a_at) / RFU CDHR5 (11726645_a_at) / Fold change /veh CDHR5 (11726645_a_at) / RFU RCAN1 (11760418_a_at) / Fold change /veh RCAN1 (11760418_a_at) / RFU FAM167A (11723789_a_at) / Fold change /veh FAM167A (11723789_a_at) / RFU FAM26E (11764081_at) / Fold change /veh FAM26E (11764081_at) / RFU ISYNA1 (11749810_s_at) / Fold change /veh ISYNA1 (11749810_s_at) / RFU ACY1 (11761880_at) / Fold change /veh ACY1 (11761880_at) / RFU 11764098_at / Fold change /veh 11764098_at / RFU SAMD14 (11745864_x_at) / Fold change /veh SAMD14 (11745864_x_at) / RFU NPB (11741838_a_at) / Fold change /veh NPB (11741838_a_at) / RFU TMPRSS6 (11731388_a_at) / Fold change /veh TMPRSS6 (11731388_a_at) / RFU KRTAP10-2 (11738614_at) / Fold change /veh KRTAP10-2 (11738614_at) / RFU ARHGAP8 /// PRR5-ARHGAP8 (11727945_x_at) / Fold change /veh ARHGAP8 /// PRR5-ARHGAP8 (11727945_x_at) / RFU KRTAP5-7 /// NADSYN1 (11734609_at) / Fold change /veh KRTAP5-7 /// NADSYN1 (11734609_at) / RFU RASL12 (11751679_a_at) / Fold change /veh RASL12 (11751679_a_at) / RFU CDKN2B (11736163_a_at) / Fold change /veh CDKN2B (11736163_a_at) / RFU PRF1 (11729649_at) / Fold change /veh PRF1 (11729649_at) / RFU, ZNF638 /// ZNF638-IT1 / Fold change vs veh, ZNF638 /// ZNF638-IT1 / RFU, PANK3 / Fold change vs veh, PANK3 / RFU, SH3YL1 / Fold change vs veh, SH3YL1 / RFU, ZEB2 / Fold change vs veh, ZEB2 / RFU, NRIP1 / Fold change vs veh, NRIP1 / RFU, PTTG1IP / Fold change vs veh, PTTG1IP / RFU, CAPN2 / Fold change vs veh, CAPN2 / RFU, MED14 / Fold change vs veh, MED14 / RFU, SNORA58 / Fold change vs veh, SNORA58 / RFU, C1orf63 / Fold change vs veh, C1orf63 / RFU, LRRFIP1 / Fold change vs veh, LRRFIP1 / RFU, NDUFAF7 / Fold change vs veh, NDUFAF7 / RFU, SLC12A2 / Fold change vs veh, SLC12A2 / RFU, IBTK / Fold change vs veh, IBTK / RFU, ESF1 / Fold change vs veh, ESF1 / Fold change vs veh, TMEM50B / RFU, TAOK1 / Fold change vs veh, TAOK1 / RFU, ACBD3 / Fold change vs veh, ACBD3 / RFU, TMA16 / Fold change vs veh, TMA16 / RFU, RWDD3 / Fold change vs veh, RWDD3 / RFU, BCAT1 / Fold change vs veh, BCAT1 / RFU, EDEM3 / Fold change vs veh, EDEM3 / RFU, TMEM33 / Fold change vs veh, TMEM33 / RFU, WDR75 / Fold change vs veh, WDR75 / RFU, AHCTF1 / Fold change vs veh, AHCTF1 / RFU, TFRC / Fold change vs veh, TFRC / RFU, ZDHHC17 / Fold change vs veh, ZDHHC17 / RFU, NOM1 / Fold change vs veh, NOM1 / RFU, ARL8B / Fold change vs veh, ARL8B / RFU, ZBTB11 / Fold change vs veh, ZBTB11 / RFU, TAMM41 / Fold change vs veh, TAMM41 / RFU, KIAA1704 /// LOC100996395 / Fold change vs veh, KIAA1704 /// LOC100996395 / RFU, ING1 / Fold change vs veh, ING1 / RFU, TRMT61B / Fold change vs veh, TRMT61B / RFU, FUBP3 / Fold change vs veh, FUBP3 / RFU, TP53 / Fold change vs veh, TP53 / RFU, TNKS2 / Fold change vs veh, TNKS2 / RFU, ZFP14 / Fold change vs veh, ZFP14 / RFU, ACTR2 / Fold change vs veh, ACTR2 / RFU, PPP3R1 / Fold change vs veh, PPP3R1 / RFU, PIK3R1 / Fold change vs veh, PIK3R1 / RFU, HNRNPA1 / Fold change vs veh, HNRNPA1 / RFU, RNF170 / Fold change vs veh, RNF170 / RFU, ZNF28 / Fold change vs veh, ZNF28 / RFU, RNGTT / Fold change vs veh, RNGTT / RFU, OGT / Fold change vs veh, OGT / RFU, BRD1 / Fold change vs veh, BRD1 / RFU, MARS / Fold change vs veh, MARS / RFU, ZNF655 / Fold change vs veh, ZNF655 / RFU, FAHD1 / Fold change vs veh, FAHD1 / RFU, BDP1 / Fold change vs veh, BDP1 / RFU, LRRCC1 / Fold change vs veh, LRRCC1 / RFU, ARID1A / Fold change vs veh, ARID1A / RFU, ZNF146 / Fold change vs veh, ZNF146 / RFU, ZNF330 / Fold change vs veh, ZNF330 / RFU, GPN3 / Fold change vs veh, GPN3 / RFU, C9orf123 / Fold change vs veh, C9orf123 / RFU, N4BP2L2 / Fold change vs veh, N4BP2L2 / RFU, ARFIP1 / Fold change vs veh, ARFIP1 / RFU, FAM179B / Fold change vs veh, FAM179B / RFU, BCL10 / Fold change vs veh, BCL10 / RFU, UHRF1BP1L / Fold change vs veh, UHRF1BP1L / RFU, BET1 / Fold change vs veh, BET1 / RFU, CNOT2 / Fold change vs veh, CNOT2 / RFU, ZNF268 / Fold change vs veh, ZNF268 / Fold change vs veh, ZNF507 / RFU, DGCR2 / Fold change vs veh, DGCR2 / RFU, WDSUB1 / Fold change vs veh, WDSUB1 / Fold change vs veh, HSP90B1 /// MIR3652 / RFU, ADSS / Fold change vs veh, ADSS / RFU, GK / Fold change vs veh, GK / RFU, ZNF148 / Fold change vs veh, ZNF148 / RFU, TAF9 / Fold change vs veh, TAF9 / RFU, SLC1A5 / Fold change vs veh, SLC1A5 / RFU, SLMO2 / Fold change vs veh, SLMO2 / RFU, ABCC4 / Fold change vs veh, ABCC4 / RFU, LOC101060439 /// RAP1B / Fold change vs veh, LOC101060439 /// RAP1B / RFU, RFX7 / Fold change vs veh, RFX7 / RFU, GTPBP10 / Fold change vs veh, GTPBP10 / RFU, CNEP1R1 / Fold change vs veh, CNEP1R1 / RFU, BIVM-ERCC5 /// ERCC5 / Fold change vs veh, BIVM-ERCC5 /// ERCC5 / RFU, ILF3 / Fold change vs veh, ILF3 / RFU 11762660_at / Fold change /veh 11762660_at / RFU VCAN (11757783_s_at) / Fold change /veh VCAN (11757783_s_at) / RFU DDX43 (11728927_at) / Fold change /veh DDX43 (11728927_at) / RFU KRT8 (11758188_x_at) / Fold change /veh KRT8 (11758188_x_at) / RFU NKD1 (11759106_at) / Fold change /veh NKD1 (11759106_at) / RFU SRD5A1 (11742802_a_at) / Fold change /veh SRD5A1 (11742802_a_at) / RFU TPSAB1 /// TPSB2 (11721975_s_at) / Fold change /veh TPSAB1 /// TPSB2 (11721975_s_at) / RFU GSTM3 (11746129_a_at) / Fold change /veh GSTM3 (11746129_a_at) / RFU IL23R (11737362_x_at) / Fold change /veh IL23R (11737362_x_at) / RFU TMEM51 (11727254_a_at) / Fold change /veh TMEM51 (11727254_a_at) / RFU PIWIL2 (11732686_x_at) / Fold change /veh PIWIL2 (11732686_x_at) / RFU ORM1 (11744905_x_at) / Fold change /veh ORM1 (11744905_x_at) / RFU CCDC152 (11743942_at) / Fold change /veh CCDC152 (11743942_at) / RFU ECM1 (11717891_a_at) / Fold change /veh ECM1 (11717891_a_at) / RFU IL23R (11748794_a_at) / Fold change /veh IL23R (11748794_a_at) / RFU TNFAIP8L3 (11732012_x_at) / Fold change /veh TNFAIP8L3 (11732012_x_at) / RFU MBOAT4 (11741988_at) / Fold change /veh MBOAT4 (11741988_at) / RFU 11764193_at / Fold change /veh 11764193_at / RFU TMEM53 (11763286_at) / Fold change /veh TMEM53 (11763286_at) / RFU MAGEB2 (11727129_at) / Fold change /veh MAGEB2 (11727129_at) / RFU TMEM200A (11744735_a_at) / Fold change /veh TMEM200A (11744735_a_at) / RFU CCDC152 (11751479_a_at) / Fold change /veh CCDC152 (11751479_a_at) / RFU FAM211A (11726209_a_at) / Fold change /veh FAM211A (11726209_a_at) / RFU RGS16 (11746705_a_at) / Fold change /veh RGS16 (11746705_a_at) / RFU VCAN (11755009_s_at) / Fold change /veh VCAN (11755009_s_at) / RFU RHOB (11743442_s_at) / Fold change /veh RHOB (11743442_s_at) / RFU RGS16 (11720943_a_at) / Fold change /veh RGS16 (11720943_a_at) / RFU RGS16 (11720944_at) / Fold change /veh RGS16 (11720944_at) / RFU, VPS4B / Fold change vs veh, VPS4B / RFU, CREB1 / Fold change vs veh, CREB1 / RFU, DNAJC13 / Fold change vs veh, DNAJC13 / RFU, GNAQ / Fold change vs veh, GNAQ / RFU, CDK5R1 / Fold change vs veh, CDK5R1 / RFU, ZRANB3 / Fold change vs veh, ZRANB3 / RFU, CUL4A / Fold change vs veh, CUL4A / RFU, CCNY / Fold change vs veh, CCNY / RFU, UFL1 / Fold change vs veh, UFL1 / RFU, COG3 / Fold change vs veh, COG3 / RFU, DIAPH2 / Fold change vs veh, DIAPH2 / RFU, SKA2 / Fold change vs veh, SKA2 / RFU, AFF3 / Fold change vs veh, AFF3 / RFU, LMF1 / Fold change vs veh, LMF1 / RFU, IPO11 / Fold change vs veh, IPO11 / RFU, DFFB / Fold change vs veh, DFFB / RFU, FOXP1 / Fold change vs veh, FOXP1 / RFU, CARD8 / Fold change vs veh, CARD8 / RFU, STRN3 / Fold change vs veh, STRN3 / RFU, ADK / Fold change vs veh, ADK / RFU, RASSF2 / Fold change vs veh, RASSF2 / RFU, WIPF1 / Fold change vs veh, WIPF1 / RFU, LARP1B / Fold change vs veh, LARP1B / RFU, RASA1 / Fold change vs veh, RASA1 / RFU, RB1 / Fold change vs veh, RB1 / RFU, PPFIA1 / Fold change vs veh, PPFIA1 / RFU, MAT2A / Fold change vs veh, MAT2A / RFU, CCT5 / Fold change vs veh, CCT5 / RFU, WDR92 / Fold change vs veh, WDR92 / RFU, CUX1 / Fold change vs veh, CUX1 / RFU, TTC7A / Fold change vs veh, TTC7A / RFU, TMEM135 / Fold change vs veh, TMEM135 / RFU, DEPTOR / Fold change vs veh, DEPTOR / RFU, CPM / Fold change vs veh, CPM / RFU, DNAJB6 / Fold change vs veh, DNAJB6 / RFU, CACNA2D3 / Fold change vs veh, CACNA2D3 / RFU, DTX4 / Fold change vs veh, DTX4 / RFU, TFCP2 / Fold change vs veh, TFCP2 / RFU, GMCL1 /// GMCL1P1 / Fold change vs veh, GMCL1 /// GMCL1P1 / RFU, AEBP2 / Fold change vs veh, AEBP2 / RFU, SNHG1 /// SNORD22 /// SNORD25 /// SNORD26 /// SNORD27 /// SNORD28 /// SNORD29 /// SNORD31 / Fold change vs veh, SNHG1 /// SNORD22 /// SNORD25 /// SNORD26 /// SNORD27 /// SNORD28 /// SNORD29 /// SNORD31 / Fold change (Aza/veh), C12orf56 (ProbeSet 11735607_a_at) / Fold change (ACY-1035/veh), C12orf56 (ProbeSet 11735607_a_at) / Fold change (Aza/veh), FGFR1OP (ProbeSet 11751329_s_at) / Fold change (ACY-1035/veh), FGFR1OP (ProbeSet 11751329_s_at) / Fold change (Aza/veh), VPS36 (ProbeSet 11739960_a_at) / Fold change (ACY-1035/veh), VPS36 (ProbeSet 11739960_a_at) / RFU SYPL1 (11715823_x_at) / Fold change /veh SYPL1 (11715823_x_at) / RFU IGFBP7 (11715501_s_at) / Fold change /veh IGFBP7 (11715501_s_at) / RFU REEP3 (11722064_at) / Fold change /veh REEP3 (11722064_at) / RFU IGLL1 (11728026_x_at) / Fold change /veh IGLL1 (11728026_x_at): dose or concentration left out as unconfirmed
Conditions: ProbeSet 11718569_a_at; LIST D

Nc1ccc(-c2cccs2)cc1NC(=O)c1ccc2c(c1)cc(C1CC1)n2CCN1CCOCC1 [ACY-1035]
RFU, WIPF1: 108.27 RFU
